ILS and Astrocyte reversal data for five compounds are collected here from ChEMBL document CHEMBL1123608, “In vivo antitumor activity of 6-benzyl-1,3-benzodioxole derivatives against the P388, L1210, B16, and M5076 murine models” (1987).

Experiment [1] has as its system Mus musculus. In words: The percent increase in life span on P388 cells which were inoculated intraperitoneally in CD2F1 mice at 100 mg/kg dose placed at ranking order 2. It is filed as functional. The note with it: P388, ip, route intraperitoneal.
The subject of experiment [2] is Mus musculus. Put plainly: The percent increase in life span on P388 cells which were inoculated intraperitoneally in CD2F1 mice at 240 mg/kg dose placed at ranking order 1. It counts as functional. Particulars: P388, ip, route intraperitoneal.
Experiment [3] has as its system Mus musculus. Put plainly: Percent increase in life span (ILS) was measured on P388 cells which were inoculated intraperitoneally in CD2F1 mice. It is filed as functional.
The nature of experiment [4]: Ability to inhibit the dibutyryl-cAMP-induced change of an immature glioma cell to a mature, differentiated astrocyte by in vitro astrocytoma assay at 100 ug/mL dose (Experiment #2); value may range from 16 to 30. It counts as functional, Mus musculus.
The nature of experiment [5]: Ability to inhibit the dibutyryl-cAMP-induced change of an immature glioma cell to a mature, differentiated astrocyte by in vitro astrocytoma assay at 1 ug/mL dose (Experiment #1); value may range from 0 to 5. It counts as functional, Mus musculus.
Experiment [6] in a line: Ability to inhibit the dibutyryl-cAMP-induced change of an immature glioma cell to a mature, differentiated astrocyte by in vitro astrocytoma assay at 10 ug/mL dose (Experiment #2); value may range from 0 to 5. It counts as functional, Mus musculus.
In experiment [7] the test system is Mus musculus. In words: The percent increase in life span on P388 cells which were inoculated intraperitoneally in CD2F1 mice at 200 mg/kg dose placed at ranking order 3. It is filed as functional. The note with it: P388, ip, route intraperitoneal.
The subject of experiment [8] is Mus musculus. Put plainly: In vivo antitumor activity against the B16 melanoma cell line expressed as percent increase in life span; IA means inactive. It counts as functional, organism-based.
The nature of experiment [9]: Ability to inhibit the dibutyryl-cAMP-induced change of an immature glioma cell to a mature, differentiated astrocyte by in vitro astrocytoma assay at 1 ug/mL dose (Experiment #2); value may range from 0 to 5. It is filed as functional, Mus musculus.
Experiment [10] has as its system Mus musculus. Put plainly: The percent increase in life span on P388 cells which were inoculated intraperitoneally in CD2F1 mice at 100 mg/kg dose placed at ranking order 4. It counts as functional. Particulars: P388, ip, route intraperitoneal.
Experiment [11] in a line: Ability to inhibit the dibutyryl-cAMP-induced change of an immature glioma cell to a mature, differentiated astrocyte by in vitro astrocytoma assay at 100 ug/mL dose (Experiment #1); value may range from 16 to 30. It counts as functional, Mus musculus.
Experiment [12] concerns Mus musculus. In words: In vivo antitumor activity against the M5076 reticulum cell sarcoma expressed as percent increase in life span; IA means inactive. It is filed as functional, organism-based.
Experiment [13] has as its system Mus musculus. Put plainly: In vivo antitumor activity against the L1210 leukemia cell line expressed as percent increase in life span; IA means inactive. It counts as functional, organism-based.
A short description of experiment [14]: Ability to inhibit the dibutyryl-cAMP-induced change of an immature glioma cell to a mature, differentiated astrocyte by in vitro astrocytoma assay at 10 ug/mL dose (Experiment #1); value may range from 6 to 15. It is filed as functional, Mus musculus.
Experiment [15] deals with Mus musculus. Put plainly: The percent increase in life span on P388 cells which were inoculated intraperitoneally in CD2F1 mice at 100 mg/kg dose placed at ranking order 1. Particulars: P388, ip, route intraperitoneal. It is filed as functional.
Experiment [16] concerns Mus musculus. In words: The percent increase in life span on P388 cells which were inoculated intraperitoneally in CD2F1 mice at 200 mg/kg dose placed at ranking order 2. It counts as functional. Particulars: P388, ip, route intraperitoneal.
The test system of experiment [17] is Mus musculus. Put plainly: The percent increase in life span on P388 cells which were inoculated intraperitoneally in CD2F1 mice at 400 mg/kg (tested in the same control) dose placed at ranking order 4. Particulars: P388, ip, route intraperitoneal. It counts as functional.
Experiment [18] concerns Mus musculus. Put plainly: In vivo antitumor activity against the B16 melanoma cell sarcoma expressed as percent increase in life span; IA means inactive. It counts as functional, organism-based.
The test system of experiment [19] is Mus musculus. Put plainly: In vivo antitumor activity against the L1210 leukemia cell line expressed as percent increase in life span at 200 mg/kg dose. Particulars: for ILS: dose 200 mg/kg. It counts as functional.
The subject of experiment [20] is Mus musculus. In words: The percent increase in life span on P388 cells which were inoculated intraperitoneally in CD2F1 mice at 400 mg/kg dose placed at ranking order 1. It counts as functional. Particulars: P388, ip, route intraperitoneal.
Experiment [21] relates to Mus musculus. In words: The percent increase in life span on P388 cells which were inoculated intraperitoneally in CD2F1 mice at 400 mg/kg dose placed at ranking order 3. It counts as functional. The note with it: P388, ip, route intraperitoneal.
For experiment [22], the system named is Mus musculus. In words: The percent increase in life span on P388 cells which were inoculated intraperitoneally in CD2F1 mice at 480 mg/kg dose placed at ranking order 1. The note with it: P388, ip, route intraperitoneal. It counts as functional.
Experiment [23] concerns Mus musculus. In words: The percent increase in life span on P388 cells which were inoculated intraperitoneally in CD2F1 mice at 240 mg/kg dose placed at ranking order 2. It is filed as functional. Particulars: P388, ip, route intraperitoneal.
Experiment [24] deals with Mus musculus. In words: The percent increase in life span on P388 cells which were inoculated intraperitoneally in CD2F1 mice at 400 mg/kg dose placed at ranking order 2. It is filed as functional. Particulars: P388, ip, route intraperitoneal.
Experiment [25] has as its system Mus musculus. Put plainly: The percent increase in life span on P388 cells which were inoculated intraperitoneally in CD2F1 mice at 200 mg/kg dose placed at ranking order 1. Particulars: P388, ip, route intraperitoneal. It counts as functional.
The subject of experiment [26] is Mus musculus. Put plainly: In vivo antitumor activity against the B16 melanoma cell line expressed as percent increase in life span at 100 mg/kg dose. It is filed as functional.
Experiment [27] relates to Mus musculus. Put plainly: The percent increase in life span on P388 cells which were inoculated intraperitoneally in CD2F1 mice at 300 mg/kg dose placed at ranking order 4. It is filed as functional. The note with it: P388, ip, route intraperitoneal.
Experiment [28] concerns Mus musculus. Put plainly: In vivo antitumor activity against the M5076 reticulum cell sarcoma expressed as percent increase in life span at 500 mg/kg dose. It counts as functional.
Experiment [29] concerns Mus musculus. In words: In vivo antitumor activity against the B16 melanoma cell line expressed as percent increase in life span at 200 mg/kg dose. It counts as functional.

Structures are written as SMILES. Values joined by “and” are separate entries in the source; they are usually repeats but may differ in a detail not shown here. Equal entries are not always repeated. Active and inactive are the calls of the source. No cut-off for these calls is given here.

One may read the ILS as the gain in survival time of treated over control animals, in per cent. `CCCOc1cc2c(cc1C(C)c1ccc(OCC)cc1)OCO2` (stereo not drawn) displayed an ILS at 100 mg/kg in experiment [1] of 26%. In addition, the ILS at 240 mg/kg in [2] was 41%. In addition, in experiment [3], the ILS was determined as 41%.

On to `COc1ccc(C(C)c2cc3c(cc2OC)OCO3)cc1` (stereo not drawn), for which the Astrocyte reversal was 30% in experiment [4]; 5% in [5]; 5% in [6]; 5% in experiment [9]; 30% in experiment [11]; 15% in experiment [14]. The ILS at 200 mg/kg in experiment [7] was 74%. The ILS entry in experiment [8], in [12] and in experiment [13] was “inactive” throughout. Further, the increase in lifespan (ILS) at 100 mg/kg in experiment [1] was 76%; in experiment [10], 53%; in [15], 78%. In addition, the ILS in experiment [3] worked out at 78%.

As to `COc1cc(C(C)c2cc3c(cc2OCCO)OCO3)cc(OC)c1OC` (stereo not drawn), the ILS at 200 mg/kg in [16] is 66%; in experiment [19] (Mus musculus, L1210, dose 200 mg/kg) it was 43%. Further, the ILS in [3] came to 80%; in experiment [19], 33%. The ILS at 400 mg/kg in experiment [17] stood at 49%; in [20], 80%; in [21], 61%. For the same compound, the ILS entry in [12] and in [18] was “inactive” in each case.

As for `CCOc1cc2c(cc1C(C)(C)c1ccc(OC)cc1)OCO2`, the ILS at 480 mg/kg in experiment [22] was found to be 35%. In addition, the ILS at 240 mg/kg in experiment [23] was found to be 25%. In experiment [3], this compound returned an ILS of 35%.

The compound `CCOc1ccc(C(C)c2cc3c(cc2OC)OCO3)cc1` (stereo not drawn) yielded an increase in lifespan (ILS) at 400 mg/kg in experiment [24] of 61%. Further, the ILS at 200 mg/kg came to 78% in experiment [25], 56% in experiment [7] and 42% in [29]. In addition, the ILS at 100 mg/kg in experiment [26] was 29%. The increase in life span (ILS) at 300 mg/kg in experiment [27] turned out to be 31%. The increase in life span (ILS) was 49% and 27% in experiment [28]; 78% in experiment [3]; 50% and 24% in experiment [19].
